Literature values as cited in patent publication US20060243184A1, “Use of waste nitrogen from air separation units for blanketing cargo and ballast tanks” (Chevron U.S.A. Inc., priority 2003, published 2006).

Conditions: @ 20° C.

| Structure (SMILES) | Water Solubility |
| --- | --- |
| CCS [Ethylmercaptan] | 1.3% |
| CS [Methylmercaptan] | 2.4% |
| CCCS [Propylmercaptan] | Low |
